{
  "source": "patent EP4623908A1",
  "about": "“USE OF (-)-EPIGALLOCATECHIN GALLATE COMPOUND” (CF Pharmtech, Inc., priority 2022, dated 2024)",
  "key": {"[1]": {"experiment": "Pharmacokinetics of low-dose tracheal nebulization and oral gavage in rat plasma and lungs (Example 3)", "type": "in vivo, rats", "settings": "for Lung AUC0-t / Lung Cmax: rat lung tissue, average", "description": "As described in Example 1, the administration methods of oral gavage or tracheal nebulization of different doses of EGCG solution in rats were used to study the pharmacokinetic parameters of the drug in the lungs. The tracheal nebulization doses were 0.05 mg/kg, 0.1 mg/kg, 0.2 mg/kg, and 0.4 mg/kg, with 6-8 rats per dose group. The oral gavage dose was 60 mg/kg, with 6 rats.\nThe blood sampling method and sample processing were as described in Example 2. The blood collection time points for this experiment were 5 minutes, 2 hours, 6 hours, 8 hours, 10 hours, and 16 hours post-administration, with approximately […] of whole blood collected at each time point."}, "[2]": {"experiment": "Single-dose escalation study of nebulized inhalation solution in healthy volunteers, safety and pharmacokinetics (Example 7)", "type": "in vivo", "settings": "for subjects with local symptoms in the oropharynx and respiratory tract: nebulized inhalation solution, single dose", "description": "A randomized, double-blind, placebo-controlled clinical study was conducted with 22 healthy volunteers to evaluate the safety and tolerability of single-dose inhalation of EGCG nebulized solution, as well as pharmacokinetic characteristics, compared to placebo nebulized solution and oral EGCG capsules.\nTest group: EGCG nebulized inhalation solution (the EGCG nebulized solution containing EDTA as described in Example 6), with an initial concentration of 10mg/mL, diluted to different doses before administration.\nOral control group: EGCG capsules, each weighing 150mg, with EGCG content approximately 94% of the total weight.\nRefer to Table 6 below. The oral control group was randomly assigned 4 volunteers to receive 600mg of EGCG capsules (4 capsules, approximately 564mg of EGCG).\nThe EGCG nebulized inhalation treatment included 3 groups: • 1. 3mg dose group: 1mL of the starting drug solution was diluted to 1mg/mL, and 3mL was administered via the nebulizer. • 2. 10mg dose group: 1mL of the starting drug solution was diluted to 3.33mg/mL, and 3mL was administered via the nebulizer. • 3. 30mg dose group: The starting drug solution was not diluted, and 3mL was directly administered via the nebulizer.\nEach nebulized inhalation dose group was randomly assigned 6 volunteers, starting with the lowest dose. In each group, 2 volunteers were designated as sentinels (1:1 randomization, 1 in the EGCG nebulized inhalation group and 1 in the placebo group), observed for ≥24 hours, and the study investigator performed a safety assessment. After permission from the investigator, the remaining 4 volunteers in each group received their assigned treatment (3:1 randomization, 3 in the EGCG nebulized inhalation group and 1 in the placebo group). Table 6: Group Information for Oral Control and EGCG Nebulized Inhalation Administration Groups.\nBlood samples were collected from the subjects at 13 time points: pre-dose (within 1 hour before administration), and post-dose at 15 minutes, 30 minutes, 1 hour, 1.5 hours, 2 hours, 3 hours, 4 hours, 6 hours, 8 hours, 10 hours, 12 hours, and 24 hours. A total of 4mL of blood was collected at each time point, and plasma was extracted for pharmacokinetic (PK) testing, backup, and metabolite identification.\nAdverse event (AE) monitoring; physical examination; vital signs (body temperature, blood pressure, pulse, respiration), blood oxygen saturation; heart function; lung function."}, "[3]": {"system": "Pulmonary Fibrosis Induced by Bleomycin in Rats", "experiment": "Bleomycin-induced pulmonary fibrosis model in rats (Example 5)", "type": "in vivo, SD rats", "settings": "for Hydroxyproline Content: rat lung tissue, Mean ±SEM", "description": "This study aims to compare the effects of different administration methods, including oral gavage of EGCG, tracheal nebulization of pirfenidone solution, and tracheal nebulization of EGCG at different doses, on the collagen content in lung tissues and pathological observations of rats with bleomycin-induced pulmonary fibrosis. The therapeutic effect of inhaled EGCG on rat pulmonary fibrosis was evaluated.\nThe solvents for the EGCG nebulization solution, modeling agents, and their solvents are as described in Example 4. The positive control drug is pirfenidone (purity 99%, pharmaceutical grade), with the solvent components consisting of NaCl and citric acid, forming a clear liquid.\nSPF-grade SD rats, 6-9 weeks old with a weight of 200-300g, totaling 88 rats, were randomly divided into the following groups: • Sham operation group (normal control) (8 rats) • Pulmonary fibrosis model control group (10 rats) • Oral gavage EGCG group 1 (10 rats) • Oral gavage EGCG group 2 (10 rats) • Tracheal Nebulization EGCG solution groups 1-4 (10 rats per group, total 40 rats) • Tracheal Nebulization pirfenidone solution group (10 rats)\nOn D1, the normal control group was administered solvent 2 (saline injection solution, 1 mL/kg) via tracheal nebulization, while all other groups were administered bleomycin (2.5 mg/kg, 1 mL/kg) via tracheal nebulization twice a day (morning and afternoon) to establish the model. On D8, the body weights of the animals were recorded. From D10 to D28, the normal control and pulmonary fibrosis model groups were treated with solvent 1 via tracheal nebulization, while the remaining groups were administered EGCG or pirfenidone once daily at the following doses and administration methods: • Oral gavage EGCG group 1 and 2: 30 mg/kg, 60 mg/kg • Tracheal Nebulization EGCG group 1-4: 0.05 mg/kg, 0.4 mg/kg, 0.8 mg/kg, 1.6 mg/kg • Tracheal Nebulization pirfenidone solution group: 0.9 mg/kg (reference dose from M.W. Surber et al., ATS POSTER, 2014)\nOn D29, all animals were euthanized for dissection. During the necropsy, the lungs, trachea, and bronchi were examined for abnormalities. Left lung tissue was preserved at below -60°C for hydroxyproline content detection, and right lung tissue was prepared for pathological sectioning. Hematoxylin and eosin (HE) staining and Masson staining were performed for pathological morphological observations and fibrosis evaluation.\nAll groups were compared to the model group using statistical analysis via Kruskal-Wallis test. The results are indicated as follows: • *P < 0.05: statistically significant difference • **P < 0.01: highly significant difference • ***P < 0.001: extremely significant difference • ****P < 0.0001: extremely highly significant difference"}, "[4]": {"settings": "Tracheal Nebulization (inh) 0.05 mg/kg"}, "[5]": {"settings": "Tracheal Nebulization (inh) 0.1 mg/kg"}, "[6]": {"settings": "Tracheal Nebulization (inh) 0.2 mg/kg"}, "[7]": {"settings": "Tracheal Nebulization (inh) 0.4 mg/kg"}, "[8]": {"settings": "rat, after oral gavage 60 mg/kg"}, "[9]": {"settings": "human plasma, after inhalation compared to oral administration"}},
  "data": [
    {"smiles": "O=C(O[C@@H]1Cc2c(O)cc(O)cc2O[C@@H]1c1cc(O)c(O)c(O)c1)c1cc(O)c(O)c(O)c1", "note": "[EGCG, (-)-Epigallocatechin gallate]", "values": [
      {"measurement": "Cmax", "setting": "[1]; lung, inhaled or intranasal, rat, inhalation dose above 0.2 mg/kg, read-out: maximum drug concentration (Cmax) in the lungs", "value": "> 1000", "unit": "ng/mL"},
      {"measurement": "Lung AUC0-t", "setting": "[1]; [4]", "value": 284.7, "unit": "ng·h/mL"},
      {"measurement": "Lung Cmax", "setting": "[1]; [4]", "value": 79.6, "unit": "ng/mL"},
      {"measurement": "Lung AUC0-t", "setting": "[1]; [5]", "value": 1031.4, "unit": "ng·h/mL"},
      {"measurement": "Lung Cmax", "setting": "[1]; [5]", "value": 220.4, "unit": "ng/mL"},
      {"measurement": "Lung AUC0-t", "setting": "[1]; [6]", "value": 3082.7, "unit": "ng·h/mL"},
      {"measurement": "Lung Cmax", "setting": "[1]; [6]", "value": 1038.0, "unit": "ng/mL"},
      {"measurement": "Lung AUC0-t", "setting": "[1]; [7]", "value": 11764.1, "unit": "ng·h/mL"},
      {"measurement": "Lung Cmax", "setting": "[1]; [7]", "value": 3180.0, "unit": "ng/mL"},
      {"measurement": "Lung AUC0-t", "setting": "[1]; oral gavage (po) 60 mg/kg", "value": 226.4, "unit": "ng·h/mL"},
      {"measurement": "Lung Cmax", "setting": "[1]; oral gavage (po) 60 mg/kg", "value": 43.4, "unit": "ng/mL"},
      {"measurement": "lung concentration", "setting": "[1]; [8]", "value": "less than 100 ng/mL"},
      {"measurement": "plasma drug concentrations", "setting": "[1]; [8]", "value": "less than 100 ng/mL"},
      {"measurement": "inhalation dose as fraction of the oral dose at comparable lung drug concentration", "setting": "[1]; rat, inh 0.05 mg/kg vs oral gavage 60 mg/kg", "value": "1/1200"},
      {"measurement": "peak concentration in the lungs of the oral administration", "setting": "[1]; rat, oral gavage 60 mg/kg", "value": 32, "unit": "ng/mL"},
      {"measurement": "drug concentration in the lungs", "setting": "[1]; rat, tracheal nebulization of 0.1, 0.2, or 0.4 mg/kg, for up to 16 hours", "value": "greater than 50 ng/mL"},
      {"measurement": "overall tolerability", "setting": "[2]; after nebulized inhalation 3mg/10mg/30mg", "value": "overall tolerability was good"},
      {"measurement": "physical examination, vital signs, heart function, and lung function", "setting": "[2]; all subjects (nebulized 3mg/10mg/30mg, oral capsules 600mg)", "value": "No significant abnormalities"},
      {"measurement": "inhalation Cmax relative to the oral Cmax", "setting": "[2]; human plasma, 10mg nebulized dose group vs oral capsules 600mg", "value": "about 1/227"},
      {"measurement": "Cmax level", "setting": "[2]; [9]", "value": "lower"},
      {"measurement": "time to reach peak plasma concentration (Tmax)", "setting": "[2]; [9]", "value": "later"},
      {"measurement": "subjects with local symptoms in the oropharynx and respiratory tract", "setting": "[2]; 3mg dose group", "value": "no subjects"},
      {"measurement": "subjects with local symptoms in the oropharynx and respiratory tract", "setting": "[2]; 10mg dose group, mild", "value": "1 out of 4"},
      {"measurement": "subjects with local symptoms in the oropharynx and respiratory tract", "setting": "[2]; 30mg dose group, mild", "value": "2 out of 4"},
      {"measurement": "hydroxyproline content in rat lungs, difference from the model group", "setting": "[3]; inhalation 0.05 (P < 0.05), 0.4 (P < 0.0001), 0.8 and 1.6 mg/kg (P < 0.001)", "value": "significantly reduced"},
      {"measurement": "hydroxyproline content in rat lungs, difference from the model group", "setting": "[3]; oral administration 30 mg/kg, 60 mg/kg", "value": "not statistically significant"},
      {"measurement": "Hydroxyproline Content", "setting": "[3]; Inh 0.05mg/kg once daily D10 to D28", "value": "0.528 ± 0.038", "unit": "µg/µL"},
      {"measurement": "Hydroxyproline Content", "setting": "[3]; Inh 0.4mg/kg once daily D10 to D28", "value": "0.433 ± 0.023", "unit": "µg/µL"},
      {"measurement": "Hydroxyproline Content", "setting": "[3]; Inh 0.8mg/kg once daily D10 to D28", "value": "0.485 ± 0.027", "unit": "µg/µL"},
      {"measurement": "Hydroxyproline Content", "setting": "[3]; Inh 1.6 mg/kg once daily D10 to D28", "value": "0.465 ± 0.028", "unit": "µg/µL"},
      {"measurement": "Hydroxyproline Content", "setting": "[3]; PO 30mg/kg once daily D10 to D28", "value": "0.608 ± 0.012", "unit": "µg/µL"},
      {"measurement": "Hydroxyproline Content", "setting": "[3]; PO 60mg/kg once daily D10 to D28", "value": "0.546 ± 0.026", "unit": "µg/µL"}
    ]}
  ]
}
